Target: Muscarinic acetylcholine receptor M3 (Cavia porcellus) (UniProt Q8VH26)
Assay: Antimuscarinic activity was evaluated against muscarinic M3 receptor in Guinea-Pig ileum
Assay type: tissue-based

Muscarinic acetylcholine receptor M3 (Cavia porcellus), sequence (Q8VH26 1-587): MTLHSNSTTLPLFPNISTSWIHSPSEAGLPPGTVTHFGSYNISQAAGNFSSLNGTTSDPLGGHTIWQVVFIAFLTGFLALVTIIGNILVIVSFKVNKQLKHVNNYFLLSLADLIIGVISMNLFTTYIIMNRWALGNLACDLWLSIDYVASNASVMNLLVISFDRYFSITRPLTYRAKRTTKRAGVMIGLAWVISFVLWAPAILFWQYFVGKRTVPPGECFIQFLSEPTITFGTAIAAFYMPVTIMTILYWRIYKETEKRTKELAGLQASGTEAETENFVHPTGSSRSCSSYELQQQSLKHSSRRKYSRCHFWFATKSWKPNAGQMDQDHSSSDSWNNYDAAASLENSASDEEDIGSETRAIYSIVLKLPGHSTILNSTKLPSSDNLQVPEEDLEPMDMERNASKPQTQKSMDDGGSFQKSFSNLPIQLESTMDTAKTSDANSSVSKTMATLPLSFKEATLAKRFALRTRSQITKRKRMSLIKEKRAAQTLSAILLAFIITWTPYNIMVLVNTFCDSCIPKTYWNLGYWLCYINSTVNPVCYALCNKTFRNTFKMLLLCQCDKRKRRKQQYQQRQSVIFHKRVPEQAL

Row | Structure (SMILES) | Kb
1 | c1ccc(C(CCn2ccnc2)c2ccccc2)cc1 | 0.0891 µM
2 | CCCc1nccn1CCC(C(N)=O)(c1ccccc1)c1ccccc1 | 0.177 µM
3 | c1ccc(C(CCN2CCCCC2)c2ccccc2)cc1 | 0.0696 µM
4 | Cc1cn(CCC(C(N)=O)(c2ccccc2)c2ccccc2)cn1 | 0.0101 µM
5 | CCCc1ncn(CCC(C(N)=O)(c2ccccc2)c2ccccc2)c1CCC | 0.1 µM
6 | NC(=O)C(CCn1ccnc1)(c1ccccc1)c1ccccc1 | 0.00507 µM
7 | CCc1nccn1CCC(C(N)=O)(c1ccccc1)c1ccccc1 | 0.0781 µM
8 | NC(=O)C(CCN1CCCC1)(c1ccccc1)c1ccccc1 | 0.00559 µM
9 | N#CC(CCN1CCCC1)(c1ccccc1)c1ccccc1 | 0.0657 µM
10 | Cc1cncn1CCC(C(N)=O)(c1ccccc1)c1ccccc1 | 0.00086 µM
11 | NC(=O)C(CCn1cnc2ccccc21)(c1ccccc1)c1ccccc1 | 2.13 µM
12 | CCN(CC)CCC(c1ccccc1)c1ccccc1 | 0.197 µM
13 | CC(CC(c1ccccc1)c1ccccc1)NC(C)(C)C (centres undefined) | 0.0677 µM
14 | CC(C)(C)c1nccn1CCC(C(N)=O)(c1ccccc1)c1ccccc1 | 0.0302 µM
15 | CCc1ncn(CCC(C(N)=O)(c2ccccc2)c2ccccc2)c1CC | 0.00398 µM
16 | CC(C)c1nccn1CCC(C(N)=O)(c1ccccc1)c1ccccc1 | 0.0018 µM
17 | CC(C)(C)NCCC(c1ccccc1)c1ccccc1 | 0.792 µM
18 | Cc1nccn1CCC(C(N)=O)(c1ccccc1)c1ccccc1 | 0.00032 µM
19 | Cc1ncn(CCC(C(N)=O)(c2ccccc2)c2ccccc2)c1C | 0.0027 µM

— ChEMBL document CHEMBL1130881, “Novel imidazole derivatives with subtype-selective antimuscarinic activity (1)” (Bioorg Med Chem Lett, 1998)
